We go through 16 molecules from patent US10532065B2, “Bisphosphonic acid derivative and application for same” (NAGASAKI UNIVERSITY, priority 2014, dated 2020).

Holding throughout (format): cell-based
One assay deals with EJ-1 cells. The experiment in a line: EJ-1 cell growth inhibition (direct antitumor action, CellTiterGlo). The settings on record: for pIC50: EJ-1 (bladder cancer) growth inhibition, 4 days culture; for direct antitumor activity (in words): EJ-1 growth inhibition. How it is done: (§1) The direct antitumor action of bisphosphonic acid POM ester and bisphosphonic acid was studied by comparison using U937.
The direct antitumor action of bisphosphonic acid POM ester derivatives and bisphosphonic acids was studied by comparison using EJ-1. It was performed in the same manner as in Experimental Example 1 except that EJ-1 was used as the cell to be used. For recovery of the cells, a conventional EDTA trypsin treatment was performed.
The direct antitumor action of bisphosphonic acid POM esters and bisphosphonic acids was studied by comparison using EJ-1. It was performed in the same manner as in Experimental Example 2 except that EJ-1 was used as the cell to be used. For recovery of the cells, a conventional EDTA trypsin treatment was performed.
(§2) The direct antitumor action of various bisphosphonic acid POM esters was studied by comparison using U937 and EJ-1. The measurement was performed according to Experimental Example 2 and Experimental Example 4.

Another assay deals with U937 cells. Kind of assay: U937 cell growth inhibition (direct antitumor action, CellTiterGlo). The note with it: for pIC50: U937 cell growth inhibition, 4 days culture; for direct antitumor activity (in words): U937 growth inhibition. How it is done:
as §1, §2

A further assay concerns EJ-1 cells / γδ T cells. Kind of assay: TNF-α production from γδ T cells stimulated by compound-pretreated EJ-1 cells (indirect antitumor action, ELISA). The settings on record: for pEC50: EJ-1 pretreated 4 hr with compound, 16 hr with γδ T cells, TNF-α ELISA, read-out: TNF-α50; for TNF-α production induction activity (in words): EJ-1 pretreated with compound, γδ T cells. How it is done:
The indirect antitumor action of bisphosphonic acid POM esters and bisphosphonic acids was studied by comparison using EJ-1. In principle, EJ-1 is treated with a compound, washed, and reacted with γδ T cells, and the cytotoxic ability is studied by comparison, by quantifying TNF-α produced by γδ T cells during cell disordering. TNF-α is generally used as an index of γδ T cell induction ability and/or proliferative capacity, and γδ T cells are considered to be induced and/or proliferated in proportion to the TNF-α amount (Journal of Immunology, 154, 5986-5994 (1995)). Since the produced TNF-α is what is called a tumor necrosis factor, it is considered to have an action to lower proliferation of cancer cells or induce cell death.
Thereto was added a solution (500 μl) of compounds 3, 5, 6, 7, which are bisphosphonic acid POM ester derivatives, obtained by serially diluting 10 mM stock solution 10-fold from 20 μM, or a solution (500 μl) of bisphosphonic acid 10, 12, 13, 14 compound obtained by serially diluting 10-fold from 200 μM, and the cells were suspended well. These conical tubes were stood at 37° C. for 4 hr, and the cells were washed 3 times with 5 ml of culture medium. To these cells was added 500 μl of medium, and the cells were suspended well. […] The cell culture medium was suspended well, and the plate was centrifuged at 1,700 rpm, 4° C. for 2 min and the culture supernatant (150 μl) was taken and placed in another round-bottomed 96 well plate. The plate was frozen at −80° C. overnight, left standing at room temperature for 1 hr, stirred well and 100 μl thereof was subjected to ELISA of TNF-α. The content of TNF-α was calculated from the analytical curve of TNF-α. These were performed in triplicate, and a graph showing bisphosphonic acid POM ester derivative and the corresponding bisphosphonic acid as one pair was plotted. […] The results of bisphosphonic acid POM ester derivative are shown by -●-, and the results of bisphosphonic acid are shown by -◯-.
The indirect antitumor action of bisphosphonic acid POM esters and bisphosphonic acids was quantitatively studied by comparison using EJ-1. […] Thereto was added a solution (500 μl) of a bisphosphonic acid POM ester derivative obtained by serially diluting 10 mM stock solution 10-fold from 20 μM, or a bisphosphonic acid solution (500 μl) serially diluted 10-fold from 200 μM was added, and the cells were suspended well. These conical tubes were stood at 37° C. for 4 hr, and the cells were washed 3 times with 5 ml of culture medium. To these cells was added 500 μl of medium, and the cells were suspended well. […] The cell culture medium was suspended well, and the plate was centrifuged at 1,700 rpm, 4° C. for 2 min and the culture supernatant (150 μl) was taken and placed in another round-bottomed 96 well plate. The plate was frozen at −80° C. overnight, left standing at room temperature for 1 hr, stirred well and 100 μl thereof was subjected to ELISA of TNF-α. The content of TNF-α was calculated from the analytical curve of TNF-α. These were performed in triplicate, and a half of the concentration of compounds 1-7, which are bisphosphonic acid POM ester derivatives, and compounds 8-14, which are bisphosphonic acids, necessary for producing the maximum amount of TNF-α from γδ T cells was calculated as TNF-α50, and summarized in Table 6.
Therefore, the TNF-α50 value of various bisphosphonic acid POM ester derivatives was calculated. […] Thereto was added a solution (500 μl) of compounds 1-7 and 15-39, which are bisphosphonic acid POM ester derivatives, and compound 42, which is other bisphosphonic acid ester derivative, obtained by serially diluting 10 mM stock solution 10-fold from 20 μM, and the cells were suspended well. These conical tubes were stood at 37° C. for 4 hr, and the cells were washed 3 times with 5 ml of culture medium. To these cells was added 500 μl of medium, and the cells were suspended well. […]

pEC50, pIC50: −log10 of the molar value. “And” between values parts separate entries of the source, which are not always exact repeats. Equal entries are not always repeated. Where two headings read alike, the source gives them in different places.

Turning to `CN(CC(P(=O)(OCOC(=O)C(C)(C)C)OCOC(=O)C(C)(C)C)P(=O)(OCOC(=O)C(C)(C)C)OCOC(=O)C(C)(C)C)c1ccccn1` [Compound 1, tetrakispivaloyloxymethyl 2-(methylpyridin-2-ylamino)ethylidene-1,1-bisphosphonate], the negative-log IC50 (pIC50) in the assay on EJ-1 cells was 4.96; with U937 cells, 5.28. In the assay with EJ-1 cells / γδ T cells, the pEC50 was 6.26.
On to `CC(C)(C)C(=O)OCOP(=O)(OCOC(=O)C(C)(C)C)C(CNc1ncccc1Br)P(=O)(OCOC(=O)C(C)(C)C)OCOC(=O)C(C)(C)C` [Compound 2, tetrakispivaloyloxymethyl 2-(3-bromopyridin-2-ylamino)ethylidene-1,1-bisphosphonate], for which, in the assay on EJ-1 cells, the pIC50 is 5.64 and the “direct antitumor activity (in words)” value was “high activity”. Also, in the assay with U937 cells, the pIC50 is 6.17 and the “direct antitumor activity (in words)” value is listed as “high activity”. Besides, in the assay on EJ-1 cells / γδ T cells, the pEC50 was 5.35.
Take `Cc1ccc(NCC(P(=O)(OCOC(=O)C(C)(C)C)OCOC(=O)C(C)(C)C)P(=O)(OCOC(=O)C(C)(C)C)OCOC(=O)C(C)(C)C)nc1` [Compound 3, tetrakispivaloyloxymethyl 2-(5-methylpyridin-2-ylamino)ethylidene-1,1-bisphosphonate]: the pIC50 is 5.27 in the assay on EJ-1 cells and 5.25 in the assay on U937 cells. In addition, the pEC50 in the assay on EJ-1 cells / γδ T cells was 6.32.
In the case of `CC(C)(C)C(=O)OCOP(=O)(OCOC(=O)C(C)(C)C)C(CNc1ccc(Br)cn1)P(=O)(OCOC(=O)C(C)(C)C)OCOC(=O)C(C)(C)C` [Compound 4, tetrakispivaloyloxymethyl 2-(5-bromopyridin-2-ylamino)ethylidene-1,1-bisphosphonate], the pIC50 in the assay with EJ-1 cells is 5.11; in the assay on U937 cells it was 5.44. Besides, the pEC50 in the assay on EJ-1 cells / γδ T cells was 6.15.
With `CC(C)(C)C(=O)OCOP(=O)(OCOC(=O)C(C)(C)C)C(CNc1ccc(F)cn1)P(=O)(OCOC(=O)C(C)(C)C)OCOC(=O)C(C)(C)C` [Compound 5, tetrakispivaloyloxymethyl 2-(5-fluoropyridin-2-ylamino)ethylidene-1,1-bisphosphonate], the pIC50 in the assay on EJ-1 cells was 5.32 and 5.24. In the assay on U937 cells, this molecule gave a pIC50 of 5.28. Further, in the assay on EJ-1 cells / γδ T cells, the pEC50 was 7.16 and the “TNF-α production induction activity (in words)” value is on record as “high activity”.
As for `CC(C)(C)C(=O)OCOP(=O)(OCOC(=O)C(C)(C)C)C(CNc1ncccn1)P(=O)(OCOC(=O)C(C)(C)C)OCOC(=O)C(C)(C)C` [Compound 6, tetrakispivaloyloxymethyl 2-(pyrimidin-2-ylamino)ethylidene-1,1-bisphosphonate], in the assay with EJ-1 cells, the pIC50 is 7.05 and the “direct antitumor activity (in words)” value is “high activity”. In the assay on U937 cells, the pIC50 was 5.62 and the “direct antitumor activity (in words)” value is “high activity”. Also, in the assay on EJ-1 cells / γδ T cells, the pEC50 is 7.10 and the “TNF-α production induction activity (in words)” value is listed as “high activity”.
`Cc1cccnc1NCC(P(=O)(O)O)P(=O)(O)O` [Compound 8, 2-(3-methylpyridin-2-ylamino)ethylidene-1,1-bisphosphonic Acid, reference compound]: the negative logarithm of the IC50 (pIC50) in the assay on EJ-1 cells (EJ1, 96 h) is 4.89; in the assay on U937 cells (Homo sapiens, U-937, 96 h), 3.01. Also, in the assay on EJ-1 cells / γδ T cells (EJ1), the pEC50 was under 4.00.
With `O=P(O)(O)C(CNc1ncccc1Br)P(=O)(O)O` [Compound 9, 2-(3-bromopyridin-2-ylamino)ethylidene-1,1-bisphosphonic Acid, reference compound], the pIC50 was 3.01 with EJ-1 cells (EJ1, 96 h) and 2.96 in the assay on U937 cells (Homo sapiens, U-937, 96 h). Besides, the pEC50 in the assay with EJ-1 cells / γδ T cells (EJ1) is under 4.00.
The like results for `Cc1ccc(NCC(P(=O)(O)O)P(=O)(O)O)nc1` [Compound 10, 2-(methylpyridin-2-ylamino)ethylidene-1,1-bisphosphonic Acid, reference compound] were, in that order, 5.10, 4.54 and 4.32.
The matching figures for `O=P(O)(O)C(CNc1ccc(Br)cn1)P(=O)(O)O` [Compound 11, 2-(5-bromopyridin-2-ylamino)ethylidene-1,1-bisphosphonic Acid, reference compound]: 3.54, 3.70 and under 4.00.
The matching figures for `O=P(O)(O)C(CNc1ccc(F)cn1)P(=O)(O)O` [Compound 12, 2-(5-fluoropyridin-2-ylamino)ethylidene-1,1-bisphosphonic Acid, reference compound]: 3.59, 4.17 and 4.31.
With `O=P(O)(O)C(CNc1ncccn1)P(=O)(O)O` [Compound 13, 2-(pyrimidin-2-ylamino)ethylidene-1,1-bisphosphonic Acid, reference compound], the pIC50 is 4.64 with EJ-1 cells (EJ1, 96 h) and 3.82 in the assay with U937 cells (Homo sapiens, U-937, 96 h). The pEC50 in the assay with EJ-1 cells / γδ T cells (EJ1) was 4.32.
In the case of `CC(C)(C)C(=O)OCOP(=O)(OCOC(=O)C(C)(C)C)C(CNc1ncccc1OCc1ccccc1)P(=O)(OCOC(=O)C(C)(C)C)OCOC(=O)C(C)(C)C` [Compound 15, tetrakispivaloyloxymethyl 2-(3-benzyloxypyridin-2-ylamino)ethylidene-1,1-bisphosphonate], the negative logarithm of the IC50 (pIC50) was 4.80 in the assay with EJ-1 cells and 5.15 with U937 cells. The pEC50 with EJ-1 cells / γδ T cells was under 5.00.
Take `Cc1ccnc(NCC(P(=O)(OCOC(=O)C(C)(C)C)OCOC(=O)C(C)(C)C)P(=O)(OCOC(=O)C(C)(C)C)OCOC(=O)C(C)(C)C)c1` [Compound 16, tetrakispivaloyloxymethyl 2-(4-methylpyridin-2-ylamino)ethylidene-1,1-bisphosphonate]: the results for the negative-log IC50 (pIC50) in the assay with EJ-1 cells and in the assay on U937 cells were 4.82 and 5.17, respectively. Besides, the pEC50 with EJ-1 cells / γδ T cells is 5.29.
`CC(C)(C)C(=O)OCOP(=O)(OCOC(=O)C(C)(C)C)C(CNc1ccc(C(F)(F)F)cn1)P(=O)(OCOC(=O)C(C)(C)C)OCOC(=O)C(C)(C)C` [Compound 17, tetrakispivaloyloxymethyl 2-(5-trifluoromethylpyridin-2-ylamino)ethylidene-1,1-bisphosphonate]: the negative-log IC50 (pIC50) in the assay with EJ-1 cells was 5.37; with U937 cells it was 5.59. In addition, the pEC50 in the assay on EJ-1 cells / γδ T cells is under 5.00.
As for `CC(C)(C)C(=O)OCOP(=O)(OCOC(=O)C(C)(C)C)C(CNc1ccc(Cl)cn1)P(=O)(OCOC(=O)C(C)(C)C)OCOC(=O)C(C)(C)C` [Compound 18, tetrakispivaloyloxymethyl 2-(5-chloropyridin-2-ylamino)ethylidene-1,1-bisphosphonate], the pIC50 in the assay on EJ-1 cells is 5.32; with U937 cells, 5.48. In addition, in the assay with EJ-1 cells / γδ T cells, the pEC50 is 6.42.
